{
  "source": "patent US20220354911A1",
  "about": "“TREATMENT OF TUMORS BY A COMBINATION OF AN ONCOLYTIC ADENOVIRUS, A CDK4/6 INHIBITOR AND A FURTHER THERAPEUTICALLY ACTIVE AGENT” (KLINIKUM RECHTS DER ISAR DER TECHNISCHEN UNIVERSITÄT MÜNCHEN, priority 2019, published 2022)",
  "key": {"UMUC-3 and RT112": {"test_system": "UMUC-3 and RT112", "test": "FACS cell cycle analysis, JQ-1 and Palbociclib", "assay_type": "cell-based, human", "conditions": "100 or 300 nM JQ-1, 500 nM Palbociclib", "protocol": "For such purpose, 5×10^4 cells UMUC-3 and RT112, respectively, were seeded in 6-well plates and 24 hours later treated with appropriate inhibitors. 1 day later, at approximately 80% confluency, cells were washed with PBS, trypsinized, washed again and fixated with icecold 80% ethanol. For cell cycle analysis, samples were incubated with the DNA-intercalating dye 7-aminoactinomycine D (7-AAD) and measured via FACS analysis. Evaluation of measured data was performed via the software FlowJo."}, "XVir-N-31": {"test_system": "XVir-N-31", "test": "XVir-N-31 fiber DNA qPCR in glioblastoma cells, JQ1 and Ribociclib", "assay_type": "cell-based, Mastadenovirus, Type C, Serotype 5", "conditions": "U87 24 h.p.i., LN229 and T98G 48 h.p.i.", "protocol": "1×10^5 cells were seeded in 6 well plates in DMEM medium. The following day the cells were treated with the 500 nM LEE011 and 50 nM JQ1. At the next morning the cells were infected with 20 MOI for U87 and LN229, and 50 MOI for T98G respectively. One hour after infection DMEM Medium containing the inhibitors was added onto the cells. After each time point (4, 24, 48 hours) the cells were washed once with PBS and 200 μl of SDS DNA Lysis Buffer was added. The cells were incubated with Proteinase K for 1 hour before undergoing a phenol-chloroform-isoamylalcohol purification. The DNA was diluted in 1×TE buffer and the concentration of the DNA was determined using a Nanodrop. For each sample a solution of 10 ng/μl was prepared and a RT-qPCR using 50 ng of DNA and a GoTaq Master mix. Specific Fiber forward and reverse primers were used and for the calculation of the Δ ct value specific Actin primers were used as well. For each sample 3 Fiber and 2 Actin values were measured. The calculation was done in excel and each 24 and 48 hours was calculated based on its 4 hours value (initial viral entry, before replication)."}, "[1]": {"test_system": "E1A, E1B55k, DBP, E40rf6 and Hexon", "test": "Western blot of viral protein expression kinetics in UMUC-3 cells with JQ-1", "assay_type": "cell-based, Mastadenovirus, Type C, Serotype 5", "conditions": "UMUC-3, 10 MOI", "protocol": "(§1) 1×10^6 UMUC-3 cells were seeded in 10 cm plates in DMEM medium and 24 hours post seeding infected with 10 MOI XVir-N-31. 1 hour post infection, culturing media was either refilled by DMEM or DMEM spiked with 500 nM JQ-1. 12, 24, 36 and 48 h.p.i, lysates of total proteins were taken using an SDS-buffer. BCA Assay was applied to adjust equivalent protein concentrations. Then, protein samples were supplemented with Lämmli buffer and separated via SDS-PA gelelectrophoresis on 10% PA-Gels. Samples were blotted onto PVDF membranes using a BioRAD Wet Tank System. These membranes were blocked with TBS-Tween buffer containing 5% Skim milk powder for 1 hour at room temperature. Incubation with primary antibodies was conducted over night at 4° C. and with HRP-conjugated secondary antibodies for 1 hour at room temperature. Chemiluminescence was detected using ECL prime (Pierce) with the ChemiDoc Imaging System (BioRad). Figures were designed in Adobe® Illustrator and evaluation was performed with ImageLab."}, "[2]": {"test_system": "RB, phospho-RB, E2F-1, Hexim1", "test": "Western blot of cellular target proteins after JQ-1 and Palbociclib", "assay_type": "cell-based, human", "protocol": "as §1, with “1-2×10^6” for “1×10^6”, “UMUC-3 or RT-112” for “UMUC-3”, “treated” for “infected”, “respective small molecular inhibitors. 24 hours” for “10 MOI XVir-N-31. 1 hour”, “treatment,” for “infection, culturing media was either refilled by DMEM or DMEM spiked with 500 nM JQ-1. 12, 24, 36 and 48 h.p.i,”"}},
  "data": [
    {"smiles": "Cc1sc2c(c1C)C(c1ccc(Cl)cc1)=N[C@@H](CC(=O)OC(C)(C)C)c1nnc(C)n1-2", "note": "[JQ-1, thieno-triazolo-1-4-diazepine]", "values": [
      {"measurement": "cell cycle", "setting": "UMUC-3 and RT112", "result": "no significant influence on the cell cycle"},
      {"measurement": "XVir-N-31 replication (relative fiber DNA)", "setting": "XVir-N-31", "result": "high increase in replication"},
      {"measurement": "Hexon expression", "setting": "[1]; 500 nM JQ-1", "result": "expressed in high levels in early time-points"},
      {"measurement": "absolute viral protein expression and kinetic of XVir-N-31 viral proteins (E1A, E1B55k, DBP and E40rf6)", "setting": "[1]; 500 nM JQ-1 concurrent, 12, 24, 36 and 48 h.p.i", "result": "highly accelerated"},
      {"measurement": "RB, phospho-RB or E2F-1 protein level", "setting": "[2]; UMUC-3 and RT-112, 0.2 μM and 0.5 μM, 24 hours post treatment, monotherapy or with Palbociclib", "result": "did not show any effects"},
      {"measurement": "Hexim1", "setting": "[2]; UMUC-3 and RT-112, 24 hours post treatment", "result": "downregulated"}
    ]}
  ]
}
